Laboratory results reported in US8563714B2, “Bridged spiro [2.4] heptane derivatives as ALX receptor and/or FPRL2 agonists” (Actelion Pharmaceuticals Ltd., priority 2009, dated 2013).

Columns and labels:
human ALX receptor = target: T1, human ALX receptor (Homo sapiens, UniProt P25090); experiment: Intracellular calcium measurements (FLIPR), agonistic activity in HEK293-hALXR-Gα16 cells; format: cell-based; conditions: Fluo-4 calcium FLIPR, normalized to WKYMVm 10 nM
T1 construct: expressed in transfected cells; host or cells: HEK293 (HEK293-hALXR-Gα16)
T1 sequence (P25090 1-351): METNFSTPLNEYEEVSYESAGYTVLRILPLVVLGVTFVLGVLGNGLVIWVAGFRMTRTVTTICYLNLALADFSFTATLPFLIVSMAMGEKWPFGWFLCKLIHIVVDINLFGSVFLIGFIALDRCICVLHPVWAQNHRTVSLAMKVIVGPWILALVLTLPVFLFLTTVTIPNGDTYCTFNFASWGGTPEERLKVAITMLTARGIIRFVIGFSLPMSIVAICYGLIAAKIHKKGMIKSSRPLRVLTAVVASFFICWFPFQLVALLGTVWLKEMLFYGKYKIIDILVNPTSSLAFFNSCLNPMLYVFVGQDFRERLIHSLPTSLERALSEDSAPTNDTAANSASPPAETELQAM
In short: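 HEK293 cells expressing hALXR and Gα16 were loaded with 1 μM Fluo-4 AM and 20 mM HEPES for 60 min at 37°C, then exposed to serially diluted compound. FLIPR fluorescence was read at ex 488/em 540 nm. Baseline-subtracted peak responses were normalized to 10 nM WKYMVm.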

human FPRL2 = target: T2, human FPRL2 (Homo sapiens, UniProt P25089); experiment: Intracellular calcium measurements (FLIPR), agonistic activity in HEK293-hFPRL2-Gα16 cells; format: cell-based; conditions: Fluo-4 calcium FLIPR, normalized to GLY14-Humanin 100 nM
T2 construct: expressed in transfected cells; host or cells: HEK293 (HEK293-hFPRL2-Gα16)
T2 sequence (P25089 1-353): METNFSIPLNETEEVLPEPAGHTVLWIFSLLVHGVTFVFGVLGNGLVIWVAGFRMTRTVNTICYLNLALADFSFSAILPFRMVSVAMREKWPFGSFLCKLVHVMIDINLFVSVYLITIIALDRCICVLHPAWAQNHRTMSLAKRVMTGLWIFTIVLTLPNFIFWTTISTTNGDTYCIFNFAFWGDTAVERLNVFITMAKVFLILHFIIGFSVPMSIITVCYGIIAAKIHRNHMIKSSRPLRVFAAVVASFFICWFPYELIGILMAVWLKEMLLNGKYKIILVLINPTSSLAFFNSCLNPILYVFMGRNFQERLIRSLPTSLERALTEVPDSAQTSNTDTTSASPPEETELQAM
In short: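 Peak values after baseline subtraction are expressed relative to 100 nM Gly14-Humanin; compounds diluted in assay buffer from 10 mM DMSO stocks.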

| Compound | EC50 (human ALX receptor) [nM] | EC50 (human FPRL2) [nM] |
| --- | --- | --- |
| CCCCNC(=O)[C@H]1[C@H](C(=O)Nc2ccc(Br)cc2)[C@@H]2C=C[C@H]1C21CC1 (relative stereo) [Example 74, (5R*)—N^5-(4-Bromophenyl)-(6R*)—N^6-(butyl)-(4S*,7R*)-[4,7-ethenylene-spiro[2.4]heptane]-5,6-dicarboxamide] | 72 | 18200 |
| Cc1nc(CCNC(=O)[C@H]2[C@H](C(=O)Nc3ccc(Br)cc3)[C@H]3C=C[C@@H]2C32CC2)[nH]c1C (relative stereo) [Example 199, (5R*)—N^5-(2-(4,5-Dimethyl-1H-imidazol-2-yl)-ethyl)-(6R*)—N^6-(4-bromophenyl)-(4S*,7R*)-[4,7-ethenylene-spiro[2.4]heptane]-5,6-dicarboxamide] | 77 | 7.4 |
| NCCCCNC(=O)[C@H]1[C@H](C(=O)Nc2ccc(Br)cc2)[C@H]2C=C[C@@H]1C21CC1 (relative stereo) [Example 339, (5R*)—N^5-(4-Aminobutyl)-(6R*)—N^6-(4-bromophenyl)-(4S*,7R*)-[4,7-ethenylene-spiro[2.4]heptane]-5,6-dicarboxamide] | 19 | 1480 |
| NCCCCCNC(=O)[C@H]1[C@H](C(=O)Nc2ccc(Br)cc2)[C@H]2C=C[C@@H]1C21CC1 (relative stereo) [Example 340, (5R*)—N^5-(5-Aminopentyl)-(6R*)—N^6-(4-bromophenyl)-(4S*,7R*)-[4,7-ethenylene-spiro[2.4]heptane]-5,6-dicarboxamide] | 30 | 255 |
| O=C(Nc1ccc(Br)cc1)C1C(C(=O)NC2CCC(CN3CCCC3)CC2)C2C=CC1C21CC1 (single isomer, unassigned) [Example 218] | 2.1 | 356 |
| O=C(Nc1ccc(Br)cc1)C1C(C(=O)NC2CCC(CN3CCCC3)CC2)C2C=CC1C21CC1 (single isomer, unassigned) [Example 222] | 208 | 398 |
| O=C(Nc1ncc(Br)s1)C1C(C(=O)NC2CCC(CO)CC2)C2CCC1C21CC1 (single isomer, unassigned) [Example 410] | 855 | 18200 |
| O=C(Nc1ncc(Br)s1)C1C(C(=O)NC2CCC(CO)CC2)C2CCC1C21CC1 (single isomer, unassigned) [Example 411] | 61 | 6520 |
| NCC1CCC(NC(=O)C2C(C(=O)Nc3ccc(Br)cc3)C3C=CC2C32CC2)CC1 (single isomer, unassigned) [Example 420] | 0.13 | 1150 |
| NCC1CCC(NC(=O)C2C(C(=O)Nc3ccc(Br)cc3)C3C=CC2C32CC2)CC1 (single isomer, unassigned) [Example 421] | 13 | 1700 |
| NCCCCCNC(=O)C1C(C(=O)Nc2ccc(Br)cc2)C2C=CC1C21CC1 (stereo not drawn) [Example 1, (5R*)—N^5-(4-Bromophenyl)-(6R*)—N^6-(5-amino-pentyl)-(4S*,7R*)-[4,7-ethenylene-spiro[2.4]heptane]-5,6-dicarboxamide] | 0.16 | 571 |
| O=C(NCCCCN1CCCC1)[C@H]1[C@H](C(=O)Nc2ccc(Br)cc2)[C@@H]2C=C[C@H]1C21CC1 [Example 2, (5R)—N^5-(4-Bromophenyl)-(6R)—N^6-(4-pyrrolidin-1-yl-butyl)-(4S,7R)-[4,7-ethenylene-spiro[2.4]heptane]-5,6-dicarboxamide] | 0.1 | 46 |
| CN(C)CCNC(=O)[C@H]1[C@H](C(=O)Nc2ccc(Br)cc2)[C@@H]2C=C[C@H]1C21CC1 [Example 6, (5R)—N^5-(4-Bromophenyl)-(6R)—N^6-(2-N,N-dimethyl-amino-ethyl)-(4S,7R)-[4,7-ethenylene-spiro[2.4]heptane]-5,6-dicarboxamide] | 0.41 | 1260 |
| O=C(NCCCO)[C@H]1[C@H](C(=O)Nc2ccc(Br)cc2)[C@@H]2C=C[C@H]1C21CC1 [Example 12, (5R)—N^5-(4-Bromophenyl)-(6R)—N^6-(3-hydroxy-propyl)-(4S,7R)-[4,7-ethenylene-spiro[2.4]heptane]-5,6-dicarboxamide] | 1 | 1300 |
| NC(=O)CCNC(=O)[C@H]1[C@H](C(=O)Nc2ccc(Br)cc2)[C@@H]2C=C[C@H]1C21CC1 [Example 13, (5R)—N^5-(4-Bromophenyl)-(6R)—N^6-(2-carbamoyl-ethyl)-(4S,7R)-[4,7-ethenylene-spiro[2.4]heptane]-5,6-dicarboxamide] | 1.1 | 4620 |
| CC(C)(C)OC(=O)NCCNC(=O)C1C(C(=O)Nc2ccc(Br)cc2)C2C=CC1C21CC1 (stereo not drawn) [Example 27, (5R*)—N^5-(4-Bromophenyl)-(6R*)—N^6-(2-tert-butoxycarbonyl-amino-ethyl)-(4S*,7R*)-[4,7-ethenylene-spiro[2.4]heptane]-5,6-dicarboxamide] | 4.2 | 1960 |
| COCCNC(=O)[C@H]1[C@H](C(=O)Nc2ccc(Br)cc2)[C@@H]2C=C[C@H]1C21CC1 [Example 31, (5R)—N^5-(4-Bromophenyl)-(6R)—N^6-(2-methoxy-ethyl)-(4S,7R)-[4,7-ethenylene-spiro[2.4]heptane]-5,6-dicarboxamide] | 5 | 1410 |
| COCCN(CCOC)C(=O)[C@H]1[C@H](C(=O)Nc2ccc(Br)cc2)[C@@H]2C=C[C@H]1C21CC1 [Example 63, (5R)—N^5-(4-Bromophenyl)-(6R)—N^6,N^6-bis-(2-methoxy-ethyl)-(4S,7R)-[4,7-ethenylene-spiro[2.4]heptane]-5,6-dicarboxamide] | 24 | 3950 |
| CNC(=O)C(NC(=O)C1C(C(=O)Nc2ccc(Br)cc2)C2C=CC1C21CC1)C(C)(C)C [Example 96, (5R*)—N^5-(4-Bromophenyl)-(6R*)—N^6—[(2S)-3,3-dimethyl-1-(methylamino)-1-oxobutan-2-yl]-(4S*,7R*)-[4,7-ethenylene-spiro[2.4]heptane]-5,6-dicarboxamide] | 373 | 8050 |
| COCC(Cc1ccccc1)NC(=O)C1C(C(=O)Nc2ccc(Br)cc2)C2C=CC1C21CC1 [Example 100, (5R*)—N^5-(4-Bromophenyl)-(6R*)—N^6-[(1S)-2-methoxy-1-benzyl-ethyl]-(4S*,7R*)-[4,7-ethenylene-spiro[2.4]heptane]-5,6-dicarboxamide] | 735 | 6110 |
| Cc1nc(CCNC(=O)C2C(C(=O)Nc3ccc(Br)cc3)C3CCC2C32CC2)[nH]c1C (stereo not drawn) [Example 112, (5R*)—N^5-(4-Bromophenyl)-(6R*)—N^6-(2-(4,5-dimethyl-1H-imidazol-2-yl)-ethyl)-(4S*,7R*)-[4,7-ethylene-spiro[2.4]heptane]-5,6-dicarboxamide] | 8.3 | 57 |
| O=C(NCCCCN1CCCC1)[C@H]1[C@H](C(=O)Nc2ccc(Br)cc2)[C@@H]2CC[C@H]1C21CC1 [Example 113, (5R)—N^5-(4-Bromophenyl)-(6R)—N^6-(4-pyrrolidin-1-yl-butyl)-(4S,7R)-[4,7-ethylene-spiro[2.4]heptane]-5,6-dicarboxamide] | 0.35 | 15 |
| O=C(NCCCCN1CCCC1)C1C(C(=O)NCCCn2ccnc2)C2C=CC1C21CC1 (stereo not drawn) [Example 141, (5R*)—N^5-(3-(1H-Imidazol-1-yl)-propyl)-(6R*)—N^6-(4-pyrrolidin-1-yl-butyl)-(4S*,7R*)-[4,7-ethenylene-spiro[2.4]heptane]-5,6-dicarboxamide] | 835 | 1600 |
| Cc1cc(C)n(CCC(=O)NCC2C(C(=O)Nc3ccc(Br)cc3)C3C=CC2C32CC2)n1 (stereo not drawn) [Example 159, (5R*)—N^5-(4-Bromo-phenyl)-(6R*)-6-[(3-(3,5-dimethyl-pyrazol-1-yl)-propionylamino)-methyl]-(4S*,7R*)-[4,7-ethenylene-spiro[2.4]heptane]-5-carboxamide] | 13 | 2370 |
| O=C(NCC1C(C(=O)Nc2ccc(Br)cc2)C2C=CC1C21CC1)c1cnoc1-c1ccccc1 (stereo not drawn) [Example 160, (5R*)—N^5-(4-Bromo-phenyl)-(6R*)-6-{[(5-phenyl-isoxazole-4-carbonyl)-amino]-methyl}-(4S*,7R*)-[4,7-ethenylene-spiro[2.4]heptane]-5-carboxamide] | 37 | > 25000 |
| CC(=O)c1ccc(CNC(=O)[C@H]2[C@H](C(=O)NCCCCN3CCCC3)[C@H]3C=C[C@@H]2C32CC2)o1 [Example 195, (5R)—N^5-(5-Acetyl-furan-2-yl-methyl)-(6R)—N^6-(4-pyrrolidin-1-yl-butyl)-(4S,7R)-[4,7-ethenylene-spiro[2.4]heptane]-5,6-dicarboxamide] | 28 | 647 |
